In PubChem BioAssay (NCI):
Where “and” joins values, the source holds several entries; their conditions need not be identical. Equal values may be shown once.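 Five concentrations, 48 hours, 96-well plates. GI50 is the concentration that inhibits growth by half. At the TGI there is no net growth.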

Test system: MDA-MB-468 breast
Assay: DTP human tumour cell line panel, 48 h

O=C1NC(=NCCc2ccc(Br)cc2)S/C1=C\c1ccc2ncccc2c1
GI50: > 16500 nM | TGI: > 25000 nM

S=C(SSC(=S)N1CCCCC1)N1CCCCC1
GI50: 16900 nM | TGI: 69800 nM

O=C1/C(=C/c2ccc(C(F)(F)F)cc2)COc2ccc(O)c(O)c21
GI50: 1530 nM | TGI: 2990 nM

Cc1cc(N(CCNc2ccnc3cc(Cl)ccc23)Cc2ccc3c(c2)OCO3)nc(N2CCCC2)n1
GI50: 1470 nM | TGI: 3740 nM

O=C(CI)Nc1ccc(Br)cc1
GI50: 1830 nM | TGI: 3740 nM

CSc1nc2c(c(=O)n1C)C(c1ccccc1)C1=C(N2)/C(=C/c2ccccc2)CCC1 (stereo not given)
GI50: 2840 nM | TGI: 29700 nM

COc1ccc(-c2c(-c3ccc(C#N)c(F)c3)nc(N3CCC(N)CC3)n(C)c2=O)cc1F
GI50: 7910 nM | TGI: 23200 nM

COc1cc(C2NC(=O)C(C#N)=C(Nc3cccc(C)c3)S2)ccc1O (stereo not given)
GI50: > 100000 nM | TGI: > 100000 nM

COC(=O)CC1=C(C)/C(=C/c2[nH]c(-c3ccc[nH]3)cc2OC)N=C1C
GI50: 162 nM | TGI: 1760 nM

CCOC(=O)/C=C1/SC(=Nc2ccc(C#N)cc2)N(Cc2ccco2)C1=O
GI50: 2970 nM | TGI: 14200 nM

COc1ccc2c(c1)-c1c(c3cc(OC)ccc3n(CCN(C)C)c1=O)C2=O
GI50: 1750 nM | TGI: 9190 nM

COc1ccc2nc3ccccc3c(NCCNCC(C)O)c2c1 (stereo not given)
GI50: 300 nM | TGI: 953 nM

O=C1C(Cl)=C(NCCCN(CCCNC2=C(Cl)C(=O)c3ccccc3C2=O)C2=C(Cl)C(=O)c3ccccc3C2=O)C(=O)c2ccccc21
GI50: 1210 nM | TGI: 2870 nM

Oc1[nH]c2ccccc2c1C=Nc1ccc(-n2cncn2)cc1
GI50: > 20700 nM | TGI: > 25000 nM

CC(=O)c1c(C)c2cnc(Nc3ccc(N4CCNCC4)cn3)nc2n(C2CCCC2)c1=O
GI50: 3540 nM | TGI: 15700 nM

Cc1c(C(N)=O)sc2nc(C)n(/N=c3\scc(-c4ccccc4)n3Cc3ccccc3)c(=O)c12
GI50: 2650 nM | TGI: > 100000 nM

CCS(=O)(=O)c1ccc(OC)c(Nc2ncc(-c3cccc(F)c3)o2)c1
GI50: > 25000 nM | TGI: > 25000 nM

Fc1ccc(Nc2nc(Nc3ccc(-c4nc5ccccc5[nH]4)cc3)c3cn[nH]c3n2)cc1
GI50: 1910 nM | TGI: 3740 nM

CCCCCCCCN=C(NCCCCCCCC)SCc1cccc2ccccc12
GI50: 1410 nM | TGI: 2810 nM

COc1ccc(-c2[nH]ncc2Nc2cc(OC)c(OC)c(OC)c2)cc1
GI50: 435 nM | TGI: 52300 nM

COc1ccc([I+]c2ccc(OC)cc2)cc1
GI50: 256 nM | TGI: 17900 nM

COc1cc2nc(-c3ccc(C(F)(F)F)cc3)cc(OCCCNCC3CCCO3)c2cc1OC (stereo not given)
GI50: 8890 nM | TGI: 23300 nM

CNc1cc(-c2cccc(OC(F)(F)F)c2)nc2ccc(N3CCCC3)cc12
GI50: 2110 nM and 1830 nM | TGI: 3870 nM and 3490 nM

CCN1C(=O)N(CC)C2C1N=C(SC)N2/N=C/C=C/c1ccccc1OC (stereo not given)
GI50: 256 nM | TGI: 729 nM

O=C1Cc2cc(CCN3CCNCC3)c(Cl)cc2N1
GI50: 2240 nM | TGI: 7420 nM

CNC(=O)c1cc(Oc2ccc(NC(=O)Nc3cc(C(C)(C)C)nn3-c3ccc4ncccc4c3)c(F)c2)ccn1
GI50: 1950 nM and 2430 nM | TGI: 4530 nM and 5190 nM

C[C@]12CCC(=O)C[C@@H]1CC[C@@H]1[C@@H]2CC[C@]2(C)[C@@H](OC(=O)N(CCCl)N=O)CC[C@@H]12
GI50: 1060 nM | TGI: 4720 nM

CCc1c(C)c2cc(-n3c(-c4ccc(OC)cc4)csc3=N)c(O)c(C)c2oc1=O
GI50: 1930 nM | TGI: 7760 nM

CCOCCOCCOCCOCCOCCOCCOCCOCCOCCO (tested in a mixture with another compound)
GI50: 372 nM | TGI: 2180 nM

CC(C)(C)[Si](C)(C)OC1[C@@H](COC(=O)NC(=O)CCl)O[C@@H](n2cnc3c(N)ncnc32)[C@H]1O[Si](C)(C)C(C)(C)C (stereo not given in full)
GI50: 3840 nM | TGI: 11100 nM

CC1=C[C@@H]2c3c(c(O)c(O)c4oc5cc(O)cc(O)c5c(=O)c34)[C@@H](c3cc(O)c(O)c4oc5cc(O)cc(O)c5c(=O)c34)[C@@H]2C(C)(C)C1
GI50: 3350 nM | TGI: 16200 nM

C=C(C)C(=O)Nc1ccc(-c2c(-c3ccc(Oc4nccc(C)n4)c(F)c3)c3c(N)ncnc3n2C)cc1
GI50: 1830 nM | TGI: 6830 nM

CC/C=C\C[C@H]1C/C=C2/C(=O)C(Cl)=C[C@@H]2C/C=C\CCCC(=O)O1
GI50: 309 nM | TGI: 869 nM

COc1cc(-c2ccc[nH]2)[nH]c1/C=C1\N=C(C)C(CC(=O)OCC(C)(C)C)=C1C
GI50: 82 nM | TGI: 1190 nM

COc1cnccc1Nc1nc(-c2nn(Cc3c(F)cc(OCCO)cc3F)c3ccccc23)ncc1OC
GI50: 2260 nM | TGI: 10600 nM

COc1ccc2c(c1)nnc1c3cccnc3[nH]c21
GI50: 66.7 nM and 55.6 nM | TGI: 237 nM and 1100 nM

C(=N\Nc1ccc2ccccc2n1)/c1ccccn1
GI50: 313 nM | TGI: 2460 nM

CCC(=O)Nc1nnc(Cc2ccc(OC)c(OC)c2)s1
GI50: > 100000 nM | TGI: > 100000 nM

CN(C)c1ccc2[nH]c3c(C(N)=O)cc(=O)c(=O)c=3oc2c1
GI50: 2020 nM | TGI: 5520 nM

O=C1/C(=C/c2ccc([N+](=O)[O-])o2)Oc2ccc(Cl)cc21
GI50: 1550 nM | TGI: 3450 nM

CC12O[C@H](C[C@@H](OC(=O)CCC(=O)O)[C@H]1O)n1c3ccccc3c3c4c(c5c6ccccc6n2c5c31)C(=O)NC4=O
GI50: 1720 nM | TGI: 10800 nM

CN1CCN(c2ccc(NC3=CC(=O)c4ncncc4C3=O)cc2)CC1
GI50: 189 nM | TGI: 416 nM

Cc1cc(N2CCOCC2)nc(NCc2cc(Nc3ccnc4cc(Cl)ccc34)ccc2F)n1
GI50: 1890 nM | TGI: 3910 nM

COc1cc(C(=O)n2nc(N)c3c(C)cc(C)nc32)cc(OC)c1OC
GI50: 2920 nM | TGI: > 100000 nM

COC(=O)c1cc(-c2ccc(S(C)(=O)=O)cc2)[nH]c1N/N=C/c1c(Cl)cccc1Cl
GI50: 4270 nM | TGI: > 100000 nM
